Reference: patent publication US11814371B2, “Heterocyclic compound” (MEDSHINE DISCOVERY INC., priority 2020, dated 2023)

How the values were obtained:
[1] = Pharmacokinetic test in rat eyes after intragastric administration (eye tissue and plasma, LC-MS/MS); type: in vivo, male SD rats; settings: intragastric 75 mg/kg
Procedure: Male SD rats were used as test animals, and LC-MS/MS method was used to determine the drug concentrations in eye tissues at different times after intragastric administration of the test compound. The pharmacokinetic behavior of the compounds in the eyes of rats after intragastric administration was studied, and the pharmacokinetic characteristics were evaluated.
2.2 Test animals: Six healthy adult male rats were divided into three groups with 4 eyes in each group. Animals were purchased from Beijing Vital River Laboratory Animal Technology Co., Ltd.
2.3 Drug preparation: An appropriate amount of sample was weighed, and an appropriate amount of DMSO and labrasol were added in sequence according to the volume ratio of 10:90, then the mixture was stirred and sonicated to reach a clear state of 15 mg/mL for intragastric administration.
2.4 Administration: 6 male SD rats were divided into 3 groups, after fasting for one night, the intragastric administration group was administered with a volume of 5 mL/kg and a dose of 75 mg/kg.
Male rats were euthanized at 1, 4 and 8 hours after intragastric administration of compound 1, and eye tissues from 2 eyes of each rat were combined and the concentration of compound in the retina and choroid/sclera was measured.
The LC-MS/MS method was used to determine the content of the test compound in the eye tissues of rats after intragastric administration. The linear range of the method was from 2.00 to 6000 nmol/L; the eye tissue concentration data are presented in Table 3, in which each eye tissue concentration data was obtained from the combined left and right eyes of 2 rats.

[2] = tested on: rat DME model induced by CA-1 (100 ng); test: In vivo pharmacodynamic study on rat DME model induced by CA-1 (retinal thickness by OCT); set-up: species or system male SD rats
Procedure: 20 rats were selected from 25 male SD rats and divided into 5 groups according to their body weight, with 4 rats in each group and 1 spare rat in each group, and all the animals were examined by optical coherence tomography before modeling, 48 hours and 72 hours after modeling, respectively. The appropriate scanning position for measurement was selected and the retinal thickness was marked. Through the changes of retinal thickness in each group, the effects of the test compounds on improving retinal edema were compared, and the active compounds were screened. The above experimental operations of modeling and inspection should follow the order of the right eye first and then the left eye.
• Species: Rat • Strain: SD rat, SPF grade • Age and weight: 7-8 weeks old, weighing 250-300 g • Sex: Male • Supplier: Zhejiang Vital River Laboratory Animal Technology Co., Ltd. • Animal certificate number: • 2.2 Molding agent • Carbonic anhydrase-1 (CA-1, Sigma) • 3. Experimental methods and procedures • 3.1 Administration and modeling
On the day of modeling, all animals were first administered the vehicle or the test compound orally, and about 4 hours later, the animals were injected with physiological saline (5 µL/eye) or CA-I (100 ng/eye) into the vitreous cavity of both eyes for modeling, and the end time of injection in the second eye was recorded as 0 hour, and the vehicle (10 % DMSO + 90 % labrasol) or the test compound was administered orally to all animals at 4±0.5 hours, 20±0.5 hours, 28±0.5 hours, 44±0.5 hours, 52±0.5 hours and 68±0.5 hours after modeling, respectively.
Before modeling, 48 hours and 72 hours after modeling, animals were first anesthetized, and then examined by optical coherence tomography (OCT), and before anesthesia, appropriate mydriatic agents were used to ensure that the pupils of animals were completely dilated, and the animals were anesthetized by a combination of intramuscular injection of Zoletil (5 mg/kg) and Xylazine solution (3 mg/kg). OCT inspection requirements are as follows: • 1) The optic disc should be placed in the center of the infrared fundus image during data collection; • 2) the retinal scan was performed in a “pozidriv” type, with the crossover point over the optic disc, and the retina was scanned at the widest length. • 3) The software tracking function was used as much as possible for comparison of retinal thickness before and after administration, and if the tracking function was not available, the eye position was adjusted as much as possible to be consistent with that before administration, and the clarity of the tomographic images was ensured as much as possible to facilitate comparison of retinal thickness before and after administration.

[3] = oral 75 mg/kg, 48 hours after modeling
[4] = oral 75 mg/kg, 72 hours after modeling

Compound	AUC0-8h Choroid and sclera [1] [nmol·h/kg]	Concentration of compound in Choroid and sclera ([1]; 1 hour) [nmol/kg]	Concentration of compound in Retina ([1]; 1 hour) [nmol/kg]	Concentration of compound in Choroid and sclera ([1]; 4 hours) [nmol/kg]	Concentration of compound in Retina ([1]; 4 hours) [nmol/kg]	Concentration of compound in Choroid and sclera ([1]; 8 hours) [nmol/kg]	concentration at 1 h ([1]; male, SD, plasma, oral, 1 hour, read-out: Concentration of compound in Plasma) [µM]	concentration at 4 h ([1]; male, SD, plasma, oral, 4 hours, read-out: Concentration of compound in Plasma) [µM]	concentration at 8 h ([1]; male, SD, plasma, oral, 8 hours, read-out: Concentration of compound in Plasma) [µM]	AUC(0-t) ([1]; male, SD, plasma, po, read-out: AUC0-8h Plasma) [µM·h]	relief rate of retinal thickening ([2]; oral 50 mg/kg, 48 hours after modeling) [%]	relief rate of retinal thickening ([2]; oral 50 mg/kg, 72 hours after modeling) [%]	relief rate of retinal thickening [2, 3] [%]	relief rate of retinal thickening [2, 4] [%]
COc1ccc(F)c(CNC(=O)c2cn(Cc3ccc(Cn4cc(F)ccc4=O)cc3)nc2C2COC2)c1F [Compound 1]	2803	640	90.8	450	147	82	3.69	6.44	0.729	22	19	79	100	100
COc1ccc(F)c(CNC(=O)c2cn(Cc3ccc(Cn4cc(F)ccc4=O)c(F)c3)nc2C2COC2)c1F [Compound 8]	–	–	–	–	–	–	–	–	–	–	–	–	84	116
